Data taken from patent US12115373B2, “Methods for reducing the risk of strokes by pharmacotherapy to reduce the number and duration of atrial fibrillations” (Xyra, LLC, priority 2022, dated 2024).

Tests used:
[1] = tested on: patients with either paroxysmal or persistent AFib; assay: Clinical trial: episodes of long duration AFib (>5 hrs), pacemaker monitoring (Example 4); type: in vivo; settings: for Episodes of AFib > 5 hrs: Duration, percentage relative to the baseline / Episodes of AFib > 5 hrs: Duration / Episodes of AFib > 5 hrs: Number: 2 week period; for Episodes of AFib > 5 hrs: Duration / Episodes of AFib > 5 hrs: Number: 6 patients
Experimental: This example is a clinical trial evaluation of budiodarone in treating 6 patients with either paroxysmal or persistent AFib who previously evidenced episodes of long duration AFib (greater than 5 hrs). In this example, the patients' heart rhythms were continuously monitored over a twelve-week period with a pacemaker (surgically invasive procedure) and were treated with different doses (2 weeks each) of budiodarone. In addition, during this trial, the patients were under continuous monitoring and constant clinician supervision.
The purpose of this example is to establish whether budiodarone reduces long duration AFib lasting more than 5 hours in a clinical study setting using a pacemaker to evaluate the heart rhythm.
“Number” indicates the number of long duration episodes of AFib having a duration of greater than 5 hours. “Duration” indicates the amount of time during the 2 week period spent in the greater than 5 hour duration AFib, indicated in hours and a percentage relative to the baseline measurement. […] Finally, the 800 mg bid performed best. In all doses, the reduction in episodes of AFib of greater than 5 hours were above 85% and the corresponding reduction in AFib burden was above 90%.

[2] = tested on: patients; assay: Clinical trial: longest duration episode of AFib at each dose, per subject (Example 7); type: in vivo; settings: for longest duration episode of AFib / longest duration episode of AFib, Total: 2 Weeks; for longest duration episode of AFib, Total: Total of subjects
Source text: This example is a clinical trial evaluation of 6 patients treated with different doses of budiodarone each for a two-week period to determine the longest duration episode of AFib experienced at each dose. In this example, the patients' heart rhythms were continuously monitored over a twelve-week period with a pacemaker.

[3] = tested on: patients with either paroxysmal or persistent AFib; assay: Clinical trial: episodes of longer duration AFib (>24 hrs), pacemaker monitoring (Example 3); type: in vivo; settings: 2-week period; for Episodes of AFib > 24 hrs: Duration / Episodes of AFib > 24 hrs: Number: 6 patients
Experimental: This example is a clinical trial evaluation of budiodarone in treating 6 patients with either paroxysmal or persistent AFib who previously evidenced episodes of long duration AFib (greater than 24 hrs). In this example, the patients' heart rhythms were continuously monitored over a twelve-week period with a pacemaker (surgically invasive procedure) and were treated with different doses (2 weeks each) of budiodarone. In addition, during this trial, the patients were under continuous monitoring and constant clinician supervision.
The purpose of this example is to establish whether budiodarone treatment can reduce longer duration AFib (AFib episodes lasting more than 24 hours) in a clinical study setting and using a pacemaker to evaluate heart rhythm.
“Number” indicates the number of longer duration episodes of AFib (i.e., having a duration of greater than 24 hours). “Duration” indicates the amount of time during the 2-week period spent in the longer duration indicated in hours and a percentage relative to the baseline measurement. As per the above results, 200 mg b.i.d. was sufficient to treat all patients in the study by eliminating the number of episodes of AFib lasting over 24 hours. In this case, dose escalation was not required to improve patient efficacy as the 200 mg bid doses of budiodarone were sufficient to eliminate these long duration episodes of AFib.

[4] = tested on: patients with either paroxysmal or persistent AFib; assay: Clinical trial: episodes of AFib greater than 6 minutes (0.1 hour), pacemaker monitoring (Example 6); type: in vivo; settings: for Episodes of AFib > 0.1 hrs: Duration, percent of Off Drug (baseline) / Episodes of AFib > 0.1 hrs: Number, percent of Off Drug (baseline): 2 weeks (baseline 4 weeks); for Episodes of AFib > 0.1 hrs: Number / Episodes of AFib > 0.1 hrs: Duration: all tested patients, 2 weeks; for Episodes of AFib > 0.1 hrs: Duration: cumulative; for Episodes of AFib > 0.1 hrs: Fraction of hours: hours in AFib / hours monitored
Experimental: In this example, the patients' heart rhythm was continuously monitored over a twelve-week period with a pacemaker. The patients were treated with different doses (2 weeks each) of budiodarone. In addition, during this trial, the patients were under continuous monitoring and clinician supervision.
The “Number” indicates the number of AFib episodes greater than 6 minutes for all tested patients over the trial period (4 weeks for based line, 2 weeks experimental). The “Duration” in hours indicates the cumulative duration in hours over the trial period that the tested patients were measured in episodes of AFib greater than 6 minutes.
Table 8 provides a summary of the fraction of time and the number of hours per week that the patients were in episodes of AFib greater than 6 minutes in duration, on average. The percent time in AFib was reduced by 90% for doses of budiodarone at 600 mg bid and 800 mg bid.

[5] = in vivo; cited from earlier work

For CC[C@H](C)OC(=O)Cc1oc2ccccc2c1C(=O)c1cc(I)c(OCCN(CC)CC)c(I)c1 [budiodarone, (S)-sec-butyl2-(3-(4-(2-(diethylamino)ethoxy)-3,5-diiodobenzoyl)benzofuran-2-yl)acetate], the “Episodes of AFib > 5 hrs: Duration, percentage relative to the baseline” value ([1]; 200 mg bid) was “(3.5%)”, the “Episodes of AFib > 5 hrs: Duration” value ([1]; 200 mg bid) was 17 h and the “Episodes of AFib > 5 hrs: Number” value ([1]; 200 mg bid) was 3. The “Episodes of AFib > 5 hrs: Duration, percentage relative to the baseline” value ([1]; 400 mg bid) was “(7.7%)”, the “Episodes of AFib > 5 hrs: Duration” value ([1]; 400 mg bid) was 38 h and the “Episodes of AFib > 5 hrs: Number” value ([1]; 400 mg bid) was 4. For the same molecule, the “Episodes of AFib > 5 hrs: Duration, percentage relative to the baseline” value ([1]; 600 mg bid) was “(2.8%)”, the “Episodes of AFib > 5 hrs: Duration” value ([1]; 600 mg bid) was 14 h and the “Episodes of AFib > 5 hrs: Number” value ([1]; 600 mg bid) was 2. The “Episodes of AFib > 5 hrs: Duration, percentage relative to the baseline” value ([1]; 800 mg bid) was “(1%)”, the “Episodes of AFib > 5 hrs: Duration” value ([1]; 800 mg bid) was 5 h and the “Episodes of AFib > 5 hrs: Number” value ([1]; 800 mg bid) was 1. The “corresponding reduction in AFib burden (episodes > 5 hours)” value ([1]; in all doses (200-800 mg bid)) was “above 90%”, the “reduction in episodes of AFib of greater than 5 hours” value ([1]; in all doses (200-800 mg bid)) was “above 85%” and the “dose required to eliminate all episodes of long duration AFib (>5 hrs)” value ([2]; Subject 1) was 800 mg bid. For the same molecule, the “longest duration episode of AFib” value ([2]; Subject 1, 200 mg bid) was 5 h, the “longest duration episode of AFib” value ([2]; Subject 1, 400 mg bid) was 8 h and the “longest duration episode of AFib” value ([2]; Subject 1, 600 mg bid) was 7 h. The “longest duration episode of AFib” value ([2]; Subject 1, 800 mg bid) was 3 h, the “longest duration episode of AFib” value ([2]; Subject 2, 200 mg bid) was 6 h and the “longest duration episode of AFib” value ([2]; Subject 2, 400 mg bid) was 13 h. The “longest duration episode of AFib” value ([2]; Subject 2, 600 mg bid) was 0 h, the “longest duration episode of AFib” value ([2]; Subject 2, 800 mg bid) was 5 h and the “longest duration episode of AFib” value ([2]; Subject 3, 200 mg bid) was 7 h. For the same molecule, the “longest duration episode of AFib” value ([2]; Subject 4, 200 mg bid) was 0 h, the “longest duration episode of AFib” value ([2]; Subject 4, 400 mg bid) was 2 h and the “longest duration episode of AFib” value ([2]; Subject 4, 600 mg bid) was 2 h. The “longest duration episode of AFib” value ([2]; Subject 4, 800 mg bid) was 1 h, the “longest duration episode of AFib” value ([2]; Subject 5, 200 mg bid) was 3 h and the “longest duration episode of AFib” value ([2]; Subject 5, 400 mg bid) was 2 h. For the same molecule, the “longest duration episode of AFib” value ([2]; Subject 5, 600 mg bid) was 0.8 h, the “longest duration episode of AFib” value ([2]; Subject 5, 800 mg bid) was 1.6 h and the “dose required to eliminate all episodes” value ([2]; Subject 6) was 600 mg bid. The “longest duration episode of AFib” value ([2]; Subject 6, 200 mg bid) was 6 h, the “longest duration episode of AFib” value ([2]; Subject 6, 400 mg bid) was 10 h and the “longest duration episode of AFib” value ([2]; Subject 6, 600 mg bid) was 0 h. For the same molecule, the “longest duration episode of AFib” value ([2]; Subject 6, 800 mg bid) was 3 h, the “dose sufficient to eliminate all episodes of long duration AFib (>5 hrs)” value ([2]; Subjects 4 and 5) was 200 mg twice a day and the “longest duration episode of AFib, Total” value ([2]; 200 mg bid) was 21 h. For the same molecule, the “longest duration episode of AFib, Total” value ([2]; 400 mg bid) was 33 h, the “longest duration episode of AFib, Total” value ([2]; 600 mg bid) was 7.8 h and the “longest duration episode of AFib, Total” value ([2]; 800 mg bid) was 13.6 h. The “Episodes of AFib > 24 hrs: Duration, percentage relative to the baseline” value ([3]; 200 mg bid) was “(0%)”, the “Episodes of AFib > 24 hrs: Duration” value ([3]; 200 mg bid) was 0 h and the “Episodes of AFib > 24 hrs: Number” value ([3]; 200 mg bid) was 0. The “Episodes of AFib > 24 hrs: Duration, percentage relative to the baseline” value ([3]; 400 mg bid) was “(0%)”, the “Episodes of AFib > 24 hrs: Duration” value ([3]; 400 mg bid) was 0 h and the “Episodes of AFib > 24 hrs: Number” value ([3]; 400 mg bid) was 0. For the same molecule, the “Episodes of AFib > 24 hrs: Duration, percentage relative to the baseline” value ([3]; 600 mg bid) was “(0%)”, the “Episodes of AFib > 24 hrs: Duration” value ([3]; 600 mg bid) was 0 h and the “Episodes of AFib > 24 hrs: Number” value ([3]; 600 mg bid) was 0. The “Episodes of AFib > 24 hrs: Duration, percentage relative to the baseline” value ([3]; 800 mg bid) was “(0%)”, the “Episodes of AFib > 24 hrs: Duration” value ([3]; 800 mg bid) was 0 h and the “Episodes of AFib > 24 hrs: Number” value ([3]; 800 mg bid) was 0. The “Episodes of AFib > 0.1 hrs: Duration in hrs/week (average per patient)” value (from here on “Episodes … in hrs/week (average per patient)”) ([4]; 200 mg bid) was 5.9 hrs/week, the “Episodes of AFib > 0.1 hrs: Fraction of hours (percent), percent time in AFib” value ([4]; 200 mg bid) was “(3.5%)” and the “Episodes of AFib > 0.1 hrs: Duration, percent of Off Drug (baseline)” value ([4]; 200 mg bid) was 11%. The “Episodes of AFib > 0.1 hrs: Number, percent of Off Drug (baseline)” value ([4]; 200 mg bid) was 52 (52%), the “Episodes of AFib > 0.1 hrs: Number” value ([4]; 200 mg bid) was 52 (52%) and the “Episodes of AFib > 0.1 hrs: Duration” value ([4]; 200 mg bid) was 71 h. The “Episodes of AFib > 0.1 hrs: Fraction of hours” value ([4]; 200 mg bid) was 71/2016, the “drop in percent time in AFib” value ([4]; 200 mg twice a day) was 76.7% and the “Episodes … in hrs/week (average per patient)” value ([4]; 400 mg bid) was 5 hrs/week. The “Episodes of AFib > 0.1 hrs: Fraction of hours (percent), percent time in AFib” value ([4]; 400 mg bid) was “(3.0%)”, the “Episodes of AFib > 0.1 hrs: Duration, percent of Off Drug (baseline)” value ([4]; 400 mg bid) was 10% and the “Episodes of AFib > 0.1 hrs: Number, percent of Off Drug (baseline)” value ([4]; 400 mg bid) was 28 (28%). For the same molecule, the “Episodes of AFib > 0.1 hrs: Number” value ([4]; 400 mg bid) was 28 (28%), the “Episodes of AFib > 0.1 hrs: Duration” value ([4]; 400 mg bid) was 61 h and the “Episodes of AFib > 0.1 hrs: Fraction of hours” value ([4]; 400 mg bid) was 61/2016. For the same molecule, the “Episodes … in hrs/week (average per patient)” value ([4]; 600 mg bid) was 2.5 hrs/week, the “Episodes of AFib > 0.1 hrs: Fraction of hours (percent), percent time in AFib” value ([4]; 600 mg bid) was “(1.5%)” and the “reduction of percent time in AFib” value ([4]; 600 mg bid and 800 mg bid (Table 8)) was 90%. For the same molecule, the “reduction of the number of episodes of AFib longer than 6 minutes” value ([4]; 600 mg bid or 800 mg bid) was “more than 80%”, the “Episodes of AFib > 0.1 hrs: Duration, percent of Off Drug (baseline)” value ([4]; 600 mg bid) was 4.8% and the “Episodes of AFib > 0.1 hrs: Number, percent of Off Drug (baseline)” value ([4]; 600 mg bid) was 16 (16%). The “Episodes of AFib > 0.1 hrs: Number” value ([4]; 600 mg bid) was 16 (16%), the “Episodes of AFib > 0.1 hrs: Duration” value ([4]; 600 mg bid) was 30 h and the “Episodes of AFib > 0.1 hrs: Fraction of hours” value ([4]; 600 mg bid) was 30/2016. The “drop in percent time in AFib” value ([4]; 600 mg twice a day) was 90%, the “Episodes … in hrs/week (average per patient)” value ([4]; 800 mg bid) was 1.3 hrs/week and the “Episodes of AFib > 0.1 hrs: Fraction of hours (percent), percent time in AFib” value ([4]; 800 mg bid) was “(0.8%)”. For the same molecule, the “Episodes of AFib > 0.1 hrs: Duration, percent of Off Drug (baseline)” value ([4]; 800 mg bid) was 2.5%, the “Episodes of AFib > 0.1 hrs: Number, percent of Off Drug (baseline)” value ([4]; 800 mg bid) was 15 (15%) and the “Episodes of AFib > 0.1 hrs: Number” value ([4]; 800 mg bid) was 15 (15%). For the same molecule, the “Episodes of AFib > 0.1 hrs: Duration” value ([4]; 800 mg bid) was 16 h, the “Episodes of AFib > 0.1 hrs: Fraction of hours” value ([4]; 800 mg bid) was 16/2016 and the “drop in percent time in AFib” value ([4]; 800 mg twice a day) was 94.8%. For the same molecule, the “increase in the QT interval” value [5] was “without a significant increase in the QT interval”.
